# Measured values from ChEMBL document CHEMBL1201862, “PubChem BioAssay data set” (2004).
# Activity calls are given as the source filed them.
# Legend:
# [1] = molecular target: T1, Nuclear receptor subfamily 0 group B member 1 (Homo sapiens, UniProt P51843); experiment: Luminescence-based cell-based high throughput dose response assay for inhibitors of the orphan nuclear receptor subfamily 0, group B, member 1 (DAX1; NR0B1). [Related pubchem assays (depositor defined):AID504766, AID504790]; type: functional
# T1 sequence (P51843 whole entry): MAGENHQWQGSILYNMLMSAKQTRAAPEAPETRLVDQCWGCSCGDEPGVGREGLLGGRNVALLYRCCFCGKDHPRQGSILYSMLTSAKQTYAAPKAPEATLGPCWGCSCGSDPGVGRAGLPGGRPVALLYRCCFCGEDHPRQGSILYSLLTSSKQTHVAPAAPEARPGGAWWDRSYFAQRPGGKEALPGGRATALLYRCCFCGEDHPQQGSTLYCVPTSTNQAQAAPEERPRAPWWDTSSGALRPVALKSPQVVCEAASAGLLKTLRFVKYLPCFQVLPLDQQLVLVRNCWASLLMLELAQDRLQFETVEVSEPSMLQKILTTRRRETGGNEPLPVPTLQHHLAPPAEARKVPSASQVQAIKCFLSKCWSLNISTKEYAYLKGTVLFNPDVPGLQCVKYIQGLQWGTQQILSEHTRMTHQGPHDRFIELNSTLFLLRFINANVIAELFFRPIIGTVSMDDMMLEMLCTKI
# [2] = test system: HEK293; experiment: cells; type: functional, cell-based; details: Homo sapiens
# [3] = molecular target: Ras and Rab interactor 1/Tyrosine-protein kinase ABL1 (Homo sapiens, UniProt P00519+Q13671); type: functional;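 further: biochemical TR-FRET dose-response test measuring inhibition of binding between Rin1 and Abl proteins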
# Ras and Rab interactor 1/Tyrosine-protein kinase ABL1, sequence (P00519 whole entry): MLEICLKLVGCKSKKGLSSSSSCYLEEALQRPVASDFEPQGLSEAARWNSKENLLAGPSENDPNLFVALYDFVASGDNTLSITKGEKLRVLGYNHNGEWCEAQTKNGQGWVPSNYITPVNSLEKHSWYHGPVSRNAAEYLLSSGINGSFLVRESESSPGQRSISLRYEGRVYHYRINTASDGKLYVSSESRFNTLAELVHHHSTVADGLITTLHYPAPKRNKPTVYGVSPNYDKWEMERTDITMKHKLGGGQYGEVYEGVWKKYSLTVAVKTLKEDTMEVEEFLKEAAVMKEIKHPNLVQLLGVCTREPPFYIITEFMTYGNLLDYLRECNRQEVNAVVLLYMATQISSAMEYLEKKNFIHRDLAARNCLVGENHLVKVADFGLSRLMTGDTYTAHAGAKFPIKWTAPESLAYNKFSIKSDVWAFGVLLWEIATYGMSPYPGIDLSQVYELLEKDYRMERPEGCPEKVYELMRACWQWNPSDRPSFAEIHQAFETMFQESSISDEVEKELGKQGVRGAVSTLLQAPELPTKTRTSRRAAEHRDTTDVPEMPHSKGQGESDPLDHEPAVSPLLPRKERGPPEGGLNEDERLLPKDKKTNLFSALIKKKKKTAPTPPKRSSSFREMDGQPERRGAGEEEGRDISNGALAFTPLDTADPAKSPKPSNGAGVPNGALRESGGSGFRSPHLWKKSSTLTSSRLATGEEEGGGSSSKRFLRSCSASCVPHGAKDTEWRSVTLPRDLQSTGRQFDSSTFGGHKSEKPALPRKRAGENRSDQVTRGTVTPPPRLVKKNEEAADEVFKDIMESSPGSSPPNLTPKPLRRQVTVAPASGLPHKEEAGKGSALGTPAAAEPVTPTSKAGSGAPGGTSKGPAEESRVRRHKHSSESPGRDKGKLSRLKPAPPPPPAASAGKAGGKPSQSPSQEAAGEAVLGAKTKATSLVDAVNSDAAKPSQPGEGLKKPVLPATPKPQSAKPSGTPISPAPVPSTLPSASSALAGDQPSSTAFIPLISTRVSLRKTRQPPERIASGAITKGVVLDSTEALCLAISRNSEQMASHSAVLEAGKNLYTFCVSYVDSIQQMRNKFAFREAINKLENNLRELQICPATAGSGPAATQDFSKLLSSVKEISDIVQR
# Ras and Rab interactor 1/Tyrosine-protein kinase ABL1, sequence (Q13671 whole entry): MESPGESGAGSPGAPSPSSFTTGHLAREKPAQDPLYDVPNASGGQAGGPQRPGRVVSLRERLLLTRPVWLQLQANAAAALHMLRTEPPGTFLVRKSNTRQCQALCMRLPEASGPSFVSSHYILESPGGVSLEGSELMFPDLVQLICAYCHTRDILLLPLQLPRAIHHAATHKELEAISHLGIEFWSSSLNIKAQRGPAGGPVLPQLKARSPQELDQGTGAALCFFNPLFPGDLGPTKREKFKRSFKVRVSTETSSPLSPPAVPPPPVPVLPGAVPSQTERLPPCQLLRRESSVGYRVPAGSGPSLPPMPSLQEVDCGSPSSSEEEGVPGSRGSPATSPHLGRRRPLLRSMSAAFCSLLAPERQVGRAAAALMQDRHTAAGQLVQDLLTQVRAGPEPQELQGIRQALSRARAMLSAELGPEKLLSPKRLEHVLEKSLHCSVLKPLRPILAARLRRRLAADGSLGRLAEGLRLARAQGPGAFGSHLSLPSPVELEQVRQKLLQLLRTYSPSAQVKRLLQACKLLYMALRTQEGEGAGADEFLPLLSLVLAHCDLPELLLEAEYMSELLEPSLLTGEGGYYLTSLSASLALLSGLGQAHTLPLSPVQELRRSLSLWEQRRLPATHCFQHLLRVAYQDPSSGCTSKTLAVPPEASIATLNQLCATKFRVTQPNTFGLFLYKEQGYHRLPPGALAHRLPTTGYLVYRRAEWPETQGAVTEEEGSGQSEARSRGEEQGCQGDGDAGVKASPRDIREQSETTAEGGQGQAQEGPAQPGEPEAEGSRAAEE
# [4] = molecular target: Melanocortin receptor 4 (Homo sapiens, UniProt P32245); experiment: inhibitors of MC4R cAMP signaling – cell-based, TR-FRET, biased antagonists, dose response (AID 602298); type: functional;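 further: antagonist potency against agonist-stimulated cAMP production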
# [5] = Counterscreen for activators of the function of SWI/SNF related, matrix associated, actin dependent regulator of chromatin, subfamily a, member 2 (SMARCA2, BRM): Luminescence-based cell-based high throughput dose response assay to identify non-selective compounds using the VP16 reporter assay.; type: functional
# [6] = molecular target: SWI/SNF-related matrix-associated actin-dependent regulator of chromatin subfamily A member 2 (Homo sapiens, UniProt P51531); experiment: Luminescence-based cell-based high throughput dose response assay to identify activators of the function of SWI/SNF related, matrix associated, actin dependent regulator of chromatin, subfamily a, member 2 (SMARCA2, BRM).; type: functional
# SWI/SNF-related matrix-associated actin-dependent regulator of chromatin subfamily A member 2, sequence (P51531 whole entry): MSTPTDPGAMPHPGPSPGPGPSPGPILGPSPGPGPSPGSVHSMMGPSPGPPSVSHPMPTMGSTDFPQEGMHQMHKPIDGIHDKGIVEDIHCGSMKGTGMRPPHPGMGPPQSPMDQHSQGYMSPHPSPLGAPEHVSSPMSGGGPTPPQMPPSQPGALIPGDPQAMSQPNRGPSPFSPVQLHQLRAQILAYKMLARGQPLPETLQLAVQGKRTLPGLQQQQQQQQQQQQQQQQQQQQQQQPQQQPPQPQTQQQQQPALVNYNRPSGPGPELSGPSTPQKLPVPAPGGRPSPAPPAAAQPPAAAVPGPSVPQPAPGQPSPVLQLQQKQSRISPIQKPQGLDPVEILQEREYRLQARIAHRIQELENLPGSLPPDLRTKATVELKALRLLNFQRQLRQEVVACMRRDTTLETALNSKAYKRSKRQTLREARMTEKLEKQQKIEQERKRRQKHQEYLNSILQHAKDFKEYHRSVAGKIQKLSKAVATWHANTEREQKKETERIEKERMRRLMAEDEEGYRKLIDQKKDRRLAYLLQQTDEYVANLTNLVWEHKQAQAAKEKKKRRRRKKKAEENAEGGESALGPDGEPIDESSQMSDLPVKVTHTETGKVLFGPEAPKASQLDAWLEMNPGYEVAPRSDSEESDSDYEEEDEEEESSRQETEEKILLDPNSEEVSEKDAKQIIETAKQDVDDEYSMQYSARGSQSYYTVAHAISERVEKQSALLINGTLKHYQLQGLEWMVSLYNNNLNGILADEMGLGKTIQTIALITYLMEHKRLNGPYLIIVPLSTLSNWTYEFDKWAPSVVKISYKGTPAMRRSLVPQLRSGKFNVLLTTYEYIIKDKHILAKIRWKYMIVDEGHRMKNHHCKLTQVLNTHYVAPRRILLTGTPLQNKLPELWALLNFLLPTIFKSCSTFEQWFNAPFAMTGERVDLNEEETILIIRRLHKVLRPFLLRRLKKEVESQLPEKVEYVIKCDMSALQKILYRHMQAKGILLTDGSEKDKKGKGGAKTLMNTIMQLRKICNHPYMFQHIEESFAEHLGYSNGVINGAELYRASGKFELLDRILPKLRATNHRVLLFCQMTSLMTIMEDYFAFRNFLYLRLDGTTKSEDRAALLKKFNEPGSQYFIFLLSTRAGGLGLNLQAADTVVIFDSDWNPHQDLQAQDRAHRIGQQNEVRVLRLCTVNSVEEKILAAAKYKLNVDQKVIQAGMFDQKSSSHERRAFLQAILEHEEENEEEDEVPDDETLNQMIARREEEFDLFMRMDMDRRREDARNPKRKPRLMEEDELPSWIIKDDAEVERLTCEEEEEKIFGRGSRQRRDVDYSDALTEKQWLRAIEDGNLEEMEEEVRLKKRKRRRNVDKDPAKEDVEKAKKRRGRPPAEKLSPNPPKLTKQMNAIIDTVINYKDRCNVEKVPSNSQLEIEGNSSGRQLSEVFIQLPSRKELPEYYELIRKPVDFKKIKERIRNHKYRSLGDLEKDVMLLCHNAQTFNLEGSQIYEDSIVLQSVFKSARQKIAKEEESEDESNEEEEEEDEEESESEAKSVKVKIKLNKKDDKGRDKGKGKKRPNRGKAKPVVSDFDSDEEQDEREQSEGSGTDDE
# [7] = cAMP pathway inhibition in counterscreen cell line – TR-FRET cAMP detection, counter-screen for MC4R biased antagonist project, dose response (AID 602305); type: functional, cell-based;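 further: U2OS cells stimulated with forskolin near its EC80 as the cAMP inducer; potency is for inhibition of forskolin-stimulated cAMP signaling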
# [8] = molecular target: 26S proteasome non-ATPase regulatory subunit 14 (Homo sapiens, UniProt O00487); experiment: inhibition of proteasome subunit RPN11 – biochemical, fluorescence polarization, uHTS hits, confirmation (AID 602368); type: functional
# 26S proteasome non-ATPase regulatory subunit 14, sequence (O00487 whole entry): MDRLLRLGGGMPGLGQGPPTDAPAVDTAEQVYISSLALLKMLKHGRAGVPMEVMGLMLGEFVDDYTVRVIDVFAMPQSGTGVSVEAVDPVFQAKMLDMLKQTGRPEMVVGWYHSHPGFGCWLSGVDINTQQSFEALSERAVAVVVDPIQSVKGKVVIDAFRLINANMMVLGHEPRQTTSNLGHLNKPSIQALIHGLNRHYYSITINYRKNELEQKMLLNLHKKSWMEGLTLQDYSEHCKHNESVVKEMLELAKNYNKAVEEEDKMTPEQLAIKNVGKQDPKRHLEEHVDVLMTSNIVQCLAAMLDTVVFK
# [9] = molecular target: Dual specificity tyrosine-phosphorylation-regulated kinase 1A (Rattus norvegicus, UniProt Q63470); type: biochemical, Homo sapiens
# [10] = molecular target: Prothrombin (Bos taurus, UniProt P00735); experiment: thrombin protease inhibitors – biochemical, fluorescence polarization, uHTS hits, dose response (AID 602369); type: functional
# [11] = molecular target: 72 kDa type IV collagenase (Homo sapiens, UniProt P08253); experiment: Dose Response validation of uHTS RPN11 inhibitor hits using a MMP-2 Fluorescence assay.; type: functional
# 72 kDa type IV collagenase, sequence (P08253 whole entry): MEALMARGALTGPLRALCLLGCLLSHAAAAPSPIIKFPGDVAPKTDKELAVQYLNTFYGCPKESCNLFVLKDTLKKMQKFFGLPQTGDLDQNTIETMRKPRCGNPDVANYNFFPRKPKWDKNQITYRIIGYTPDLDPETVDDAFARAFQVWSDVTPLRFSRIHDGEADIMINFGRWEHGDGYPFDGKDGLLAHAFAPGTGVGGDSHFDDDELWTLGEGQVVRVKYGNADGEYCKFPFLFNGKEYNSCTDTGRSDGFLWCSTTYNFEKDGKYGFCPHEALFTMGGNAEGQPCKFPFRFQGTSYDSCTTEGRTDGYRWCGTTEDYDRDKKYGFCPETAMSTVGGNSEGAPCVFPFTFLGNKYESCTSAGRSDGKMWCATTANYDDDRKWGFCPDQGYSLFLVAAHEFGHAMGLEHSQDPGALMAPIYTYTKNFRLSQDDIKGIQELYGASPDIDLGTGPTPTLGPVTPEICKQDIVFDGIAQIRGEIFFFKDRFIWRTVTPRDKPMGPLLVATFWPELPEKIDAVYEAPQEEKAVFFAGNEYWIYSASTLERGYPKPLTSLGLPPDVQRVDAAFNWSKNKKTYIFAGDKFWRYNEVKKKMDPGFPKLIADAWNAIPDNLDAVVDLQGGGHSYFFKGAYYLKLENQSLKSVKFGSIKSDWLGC
# [12] = molecular target: Heat shock protein HSP 90-alpha (Homo sapiens, UniProt P07900); type: functional, organism-based
# [13] = molecular target: T2, Apoptotic protease-activating factor 1 (Homo sapiens, UniProt O14727); experiment: SAR analysis of small molecule Activators of Apaf-1 in a Fluorescent assay.; type: functional; details: read-out: EC50_Mean;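 further: caspase-3 cleavage of fluorogenic Rh110 DEVD substrate downstream of apoptosome activation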
# T2 sequence (O14727 whole entry): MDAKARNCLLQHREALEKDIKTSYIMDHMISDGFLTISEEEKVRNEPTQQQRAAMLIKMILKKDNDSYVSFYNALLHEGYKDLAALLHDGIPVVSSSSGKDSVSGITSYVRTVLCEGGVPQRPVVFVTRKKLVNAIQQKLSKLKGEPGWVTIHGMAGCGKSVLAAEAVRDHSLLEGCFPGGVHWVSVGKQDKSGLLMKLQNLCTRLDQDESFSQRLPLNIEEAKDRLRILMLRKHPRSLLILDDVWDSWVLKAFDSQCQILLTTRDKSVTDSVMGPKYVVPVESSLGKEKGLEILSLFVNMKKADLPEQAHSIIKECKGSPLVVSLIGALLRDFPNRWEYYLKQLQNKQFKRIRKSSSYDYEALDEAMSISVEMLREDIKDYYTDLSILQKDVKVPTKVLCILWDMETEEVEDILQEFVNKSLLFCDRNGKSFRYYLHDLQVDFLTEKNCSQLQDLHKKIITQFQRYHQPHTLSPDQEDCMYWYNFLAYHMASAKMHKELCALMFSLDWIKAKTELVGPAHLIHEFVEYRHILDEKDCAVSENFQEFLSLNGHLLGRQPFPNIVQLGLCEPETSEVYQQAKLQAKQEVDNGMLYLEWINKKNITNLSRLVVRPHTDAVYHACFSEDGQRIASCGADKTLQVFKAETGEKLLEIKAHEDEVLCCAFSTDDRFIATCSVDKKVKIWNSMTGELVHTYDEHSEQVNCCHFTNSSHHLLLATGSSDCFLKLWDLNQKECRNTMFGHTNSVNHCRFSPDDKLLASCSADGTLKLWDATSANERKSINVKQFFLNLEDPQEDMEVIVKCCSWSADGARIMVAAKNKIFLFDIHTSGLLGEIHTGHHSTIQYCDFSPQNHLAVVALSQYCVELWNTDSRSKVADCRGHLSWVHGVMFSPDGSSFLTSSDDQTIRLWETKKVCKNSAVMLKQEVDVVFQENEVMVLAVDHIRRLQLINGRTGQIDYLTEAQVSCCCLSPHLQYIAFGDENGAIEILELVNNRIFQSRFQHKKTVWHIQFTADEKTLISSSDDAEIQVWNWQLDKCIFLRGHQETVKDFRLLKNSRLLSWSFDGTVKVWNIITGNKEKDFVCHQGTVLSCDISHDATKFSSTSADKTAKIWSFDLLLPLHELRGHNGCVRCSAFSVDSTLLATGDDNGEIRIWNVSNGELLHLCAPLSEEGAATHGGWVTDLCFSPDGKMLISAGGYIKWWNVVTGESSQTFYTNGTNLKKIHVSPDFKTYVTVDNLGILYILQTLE
# [14] = molecular target: Protein disulfide-isomerase (Homo sapiens, UniProt P07237); experiment: inhibition of PDI-driven insulin aggregation – biochemical, turbidity, absorbance, cherry-picked samples, dose response (AID 602350); type: functional
# Protein disulfide-isomerase, sequence (P07237 whole entry): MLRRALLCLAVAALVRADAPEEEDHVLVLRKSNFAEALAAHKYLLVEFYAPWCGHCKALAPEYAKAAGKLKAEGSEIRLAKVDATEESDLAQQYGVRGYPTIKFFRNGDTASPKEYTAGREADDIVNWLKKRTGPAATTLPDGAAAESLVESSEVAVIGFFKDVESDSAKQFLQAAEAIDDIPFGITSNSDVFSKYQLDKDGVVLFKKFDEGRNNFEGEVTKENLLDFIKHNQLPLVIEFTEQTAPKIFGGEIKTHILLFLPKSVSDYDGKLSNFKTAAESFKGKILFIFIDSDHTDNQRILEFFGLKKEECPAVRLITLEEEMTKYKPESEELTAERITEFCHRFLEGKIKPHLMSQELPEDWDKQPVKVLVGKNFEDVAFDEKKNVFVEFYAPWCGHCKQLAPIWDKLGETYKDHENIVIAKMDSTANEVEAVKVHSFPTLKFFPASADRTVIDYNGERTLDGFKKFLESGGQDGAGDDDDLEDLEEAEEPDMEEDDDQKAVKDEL
structure (smiles),measurement,setting,value
Cc1cc(Cl)ccc1Nc1ncccc1C(N)=O,IC50,[1],> 67.5 µM (inactive)
same,IC50,[2],> 67.5 µM (inactive)
Cc1oc2nc(SCCCC(=O)NCCO)nc(N)c2c1C,IC50,[3],6.46 µM (active)
O=C(C[S+]([O-])c1ccc(C(F)(F)F)cc1[N+](=O)[O-])Oc1ccc(Cl)cc1 (stereo unspecified),IC50,[4],> 64.6 µM (inactive)
same,EC50,[5],> 91.2 µM (inactive)
same,EC50,[6],> 91.2 µM (inactive)
same,IC50,[7],> 64.6 µM (inactive)
O=C(NN1C(=O)/C(=C\c2ccc(O)c([N+](=O)[O-])c2)SC1=S)c1ccccc1Cl,IC50,[8],26.8 µM (active)
same,AC50,[9],3.01 µM (active)
same,IC50,[10],62.5 µM (active)
same,IC50,[11],31.1 µM (active)
same,AC50,[12],5.26 µM (active)
Cc1ccc(N2C(=O)[C@@H]3C(c4ccc(F)cc4)=NO[C@@H]3C2=O)cc1,EC50,[13],> 100 µM (inactive)
COc1cccc(CNC(=O)CCNS(=O)(=O)c2cccc3nsnc23)c1,IC50,[1],> 67.5 µM (inactive)
same,IC50,[2],> 67.5 µM (inactive)
O=C(c1ccco1)N1CCN(Cc2cc(=O)oc3cc(O)ccc23)CC1,AC50,[14],19.5 µM (active)
